# Test results from patent publication US20240245787A1, “E3 LIGASE BINDERS AND USES THEREOF” (President and Fellows of Harvard College, priority 2021, published 2024).
# Like-named read-outs stand apart in the source and are kept apart here. No end group written: not given here.
# Experiments:
# FIG. 22C = assay: FIG. 22C
# Text: Table printed on a drawing sheet, FIG. 22C
# First reader's note: Per the description this is an in vitro permeability assay in Caco-2 cells; Boc-FcQ and Boc-FcN are Boc-protected dipeptide cyclic imides (cyclimids).
# IKZF1 [1] = assay: Global quantitative proteomics of MM.1S cells; format: cell-based, human (Homo sapiens); conditions: 10 μM, 10 h
# Protocol: Global proteomics samples were prepared in biological triplicate for each condition. 1.5×10^6 HEK293T or MM.1S cells were seeded in 6-well plates and incubated at 37° C., 5% CO2 for 30 min. Small molecules of interested were then added, and cells were incubated at 37° C., 5% CO2 for the indicated time. […] After protein quantification by BCA protein assay, the lysates were diluted to 1 mg/mL with the lysis buffer. The diluted lysates (100 μL) were reduced by addition of dithiothreitol (20 mM) at 24° C. for 30 min then alkylated by addition of iodoacetamide (40 mM) and incubation in the dark at 24° C. for 30 min.
# S-Trap buffer (90% methanol, 0.1 M TEAB, pH 7.1, 900 μL) was then added. Each sample was transferred to a S-Trap micro column. Using a vacuum manifold, the columns were washed with S-Trap buffer (3×150 μL). […] The digested peptides were eluted by sequential addition of 50 mM TEAB pH 8.0 (40 μL), ddH2O (40 μL) and 0.2% formic acid, 50% acetonitrile/water (35 μL), with each elution collected by centrifugation (4,000× g, 24° C., 1 min) in a clean Eppendorf tube. The eluted samples were concentrated to dryness in a vacufuge and resuspended in 45 or 80 μL ddH2O for 9 or 16 samples, respectively. For each resuspended sample, 5 μL was taken for labeling with TMT reagent (2 μL) at 24° C. for 1 h such that the combined total protein was 100 μg. […] The TMT-labeled samples were combined and dried in a vacufuge. The dried sample was resuspended in 300 μL 0.1% trifluoroacetic acid (TFA) and fractionated to 20 fractions using a Pierce high pH reversed-phase peptide fractionation kit. […] The first fraction (4% acetonitrile/0.1% TEA) was excluded from LC-MS/MS analysis. The other fractions were concentrated to dryness and each sample was resuspended in 20 μL of 0.1% formic acid prior to LC-MS/MS analysis. […]
# Analysis was performed in Thermo Scientific Proteome Discoverer version 2.4.1.15. […] The TMT reporter ions were quantified using the Reporter Ions Quantifier node and normalized such that the summed peptide intensity per channel was equal. […]
# MM.1S cells = assay: Cell viability (MTT) assay; format: cell-based; conditions: Homo sapiens, MM1.S, 120 h, 5 d, read-out: IC50 (anti-proliferative effect)
# Protocol: 2.0×10^4 MM.1S cells were seeded in each well of a 96-well plate containing 100 μL RPMI160 media supplemented with 10% FBS and 1× penicillin-streptomycin. The compound of interest was added to each well to a final concentration of 10 nM-100 μM from 100× stock solutions in 4% DMSO/PBS (1 μL). Samples were incubated at 37° C., 5% CO2 for 5 days. Each well was treated with 3-(4,5-Dimethylthiazol-2-yl)-2,5-diphenyltetrazolium (MTT, 4 mg/mL, 10 μL), and the treated plate was incubated at 37° C., 5% CO2 for 3 h. The formazan crystals were solubilized by the addition of 100 μL of 10% SDS, 0.01 M HCl per well, and the plate was allowed to incubate at 37° C. overnight. The absorbance at 570 nm was measured to quantify the formazan generated in each well. The blank was defined by wells containing media and MTT reagent without any cells. For each treatment well, the cell viability was calculated by subtracting the blank value and normalizing to the average absorbance of the vehicle control wells (cells treated with 4% DMSO/PBS).
# [2] = molecular target: CRBN/DDB1 in the presence of BD2 domain of BRD4 (Homo sapiens, UniProt O60885+Q96SW2); assay: biochemical
# BRD4 with FLAG-CRBN [3] = molecular target: T1, BRD4 with FLAG-CRBN (Homo sapiens, UniProt O60885+Q96SW2); assay: In vitro FLAG-tag co-immunoprecipitation in HEK-CRBN lysates; format: binding; conditions: 1 μM, 2 h
# Protocol: For in vitro FLAG-tag co-immunoprecipitation, 5.0×10^6 HEK-CRBN cells were collected by centrifugation, lysed in 1× protease/phosphatase inhibitor/1× non-denaturing lysis buffer (400 μL), and cleared by centrifugation (21,000×g, 4° C., 10 min). The soluble portion of the lysate was collected and 200 μL of lysate was incubated with compound of interest at 4° C. for 2 h. […] The magnetic beads were washed with 1× non-denaturing lysis buffer (5×500 μL). The enriched proteins were eluted by the addition of 40 μL of 2× SDS-PAGE loading buffer and heated at 95° C. for 5 min prior to Western blot analysis.
# BRD4 with FLAG-CRBN [4] = molecular target: T1, BRD4 with FLAG-CRBN; assay: In vivo FLAG-tag co-immunoprecipitation in HEK-CRBN cells; format: cell-based; conditions: 25 μM, 2 h, 1 μM MLN4924
# Protocol: For in vivo FLAG-tag co-immunoprecipitation, 5.0×10^6 HEK-CRBN cells were seeded and incubated at 37° C., 5% CO2 for 30 min, and then were treated with 1 μM MLN4924 for 1 h. […] The cells were collected and lysed in 1× protease/phosphatase inhibitor/1× non-denaturing lysis buffer (500 μL) and clarified by centrifugation (21,000×g, 4° C., 10 min). The soluble portion of the lysate was collected and 200 μL of lysate was incubated with of protein G magnetic beads for 20 min (20 μL) to minimize the non-specific binding. […] The magnetic beads were washed with 1× non-denaturing lysis buffer (5×500 μL). Then, the enriched proteins were eluted by addition of 40 μL of 2× SDS-PAGE loading buffer and heated at 95 °C for 5 min prior to Western blot analysis.
# [5] = tested on: GST-BRD4 and His-CRBN/DDB1; assay: AlphaScreen for ternary complex formation; format: binding; conditions: recombinant GST-BRD4 and His-CRBN/DDB1
# Protocol: AlphaScreen buffer (3× stock solution: 150 mM HEPES pH 7.4, 600 mM NaCl, 0.3% w/v BSA, 3 mM TCEP) was prepared fresh for each experiment. A 3× stock solution of each compound (60 μM, 3% DMSO final/1× AlphaScreen buffer) and a series of 2-fold serial dilutions, in 3% DMSO/1× AlphaScreen buffer, were prepared fresh for each experiment. A solution of 750 nM His6-CRBN/DDB1, 375 nM GST-BRD4/1× AlphaScreen buffer (5 μL) was added to each well of a 384-well Optiplate. Then, compound (5 μL) was added, with each concentration assayed in triplicate. As a positive control, 10 μL 100 nM GST-His6 was added to three wells. The plate was sealed with TopSeal A, centrifuged (200× g, 25° C., 1 min), and incubated at 25° C. for 1 h. Under low light, the seal was removed and 5 μL of 60 μg/mL AlphaScreen Glutathione Donor beads, 60 μg/mL AlphaLISA Nickel Chelate […] beads/1× AlphaScreen buffer was added to each well. The plate was sealed with TopSeal A, centrifuged (200× g, 25° C., 1 min), and incubated at 25° C. for 1 h. The seal was removed and the plate was analyzed. Prior to analysis, the plate reader was calibrated with a plate containing 15 μL of 20 μg/mL Omnibeads/1× AlphaScreen buffer in the corner wells. Analysis was performed in Graphpad Prism, using the vehicle-treated wells as the baseline, fitting the signal from each compound to a Gaussian curve, and calculating the area under the curve (AUC).
# [6] = molecular target: CRBN/DDB1 in the presence of BD1 domain of BRD4 (Homo sapiens, UniProt O60885+Q96SW2); assay: biochemical
# BRD4 = BRD4 (Homo sapiens, UniProt O60885)
# IKZF1 [7] = assay: Western blot of IKZF1 levels in MM.1S cells; format: cell-based; conditions: 10 μM
# Protocol: As needed, a BCA assay was performed to determine the protein concentration of lysates and the concentration was adjusted using lysis buffer. 5× SDS-PAGE loading buffer (5% (v/v) β-mercaptoethanol, 0.02% (w/v) bromophenol blue, 30% (v/v) glycerol, 10% (w/v) SDS/250 mM Tris pH 6.8) was added to the protein samples to a final concentration of 1× and the samples were heated at 95° C. for 5 min. […] Gels were transferred to membranes using the Invitrogen iBlot 2 dry blotting system and iBlot 2 nitrocellulose transfer stacks, using program PO (1 min at 20 V, 4 min at 23 V, 2 min at 25 V) for most proteins and 8 min at 25 V for high molecular weight proteins. Membranes were stained with Ponceau S solution to visualize transfer and protein loading. […] Membranes were washed (3×5 min) with TBST and incubated with secondary antibodies at 24° C. for 1 h. Membranes were washed (3×5 min) with TBST and the results were obtained by chemiluminescence and/or IR imaging using Azure 600 or c600.
# CRL4^CRBN complex = CRL4^CRBN complex (Homo sapiens, UniProt Q96SW2); assay: In vitro ubiquitylation of C-terminally tagged proteins; format: biochemical; conditions: CRL4^CRBN complex isolated from HEK-CRBN cells, 30° C., 90 min
# Protocol: 5.0×10^6 HEK-CRBN cells were collected per pellet, flash frozen with liquid nitrogen, and stored at −80° C. until use. Approximately 1 pellet per 1.5 samples was thawed on ice, and each pellet was resuspended in 1× protease inhibitor cocktail/Pierce IP lysis buffer (250 μL). Lysates were incubated on ice for 10 min, then were clarified by centrifugation (21,000×g, 4° C., 10 min). The soluble portions of the lysates were collected, with 1 mL lysate per tube, and 150 μL of TBS-washed anti-FLAG M2 beads were added. Samples were incubated at 4° C. on a roller for 1 h. Using a magnetic tube rack, the beads were collected and washed 3× with 1 mL TBS. Each sample was then eluted with by adding 100 μL of 100 ng/μL 3× FLAG peptide/TBS and incubating at 4° C. on a roller for 1 h. The eluent was collected. […] Ubiquitylation mastermixes were prepared at 2× with and without E1 and E2 enzymes. Final concentrations (1×) of the mastermix components were 0.2 μM UBE1, 2 μM UbcH5a, 1 mM UbcH5c, 400 μg/mL KO ubiquitin, 1 μM ubiquitin aldehyde, 1× Mg-ATP, 1× E3 ligase buffer, 10 μM MG132, 100 nM MG101. […] Reactions were incubated at 30° C. for 90 min then were stopped by the addition of 6.25 μL of 5× SDS-PAGE loading buffer. Samples were heated at 95° C. for 5 min prior to analysis by SDS-PAGE and Western blotting.
# [8] = read-out: KD [ternary] (nM) | BD2
# [9] = read-out: KD [ternary] (nM) | BD1
# CRBN/DDB1 in the presence of BD2 domain of BRD4, sequence (Q96SW2 whole entry, looked up, other chains not shown, the tested form may be a part): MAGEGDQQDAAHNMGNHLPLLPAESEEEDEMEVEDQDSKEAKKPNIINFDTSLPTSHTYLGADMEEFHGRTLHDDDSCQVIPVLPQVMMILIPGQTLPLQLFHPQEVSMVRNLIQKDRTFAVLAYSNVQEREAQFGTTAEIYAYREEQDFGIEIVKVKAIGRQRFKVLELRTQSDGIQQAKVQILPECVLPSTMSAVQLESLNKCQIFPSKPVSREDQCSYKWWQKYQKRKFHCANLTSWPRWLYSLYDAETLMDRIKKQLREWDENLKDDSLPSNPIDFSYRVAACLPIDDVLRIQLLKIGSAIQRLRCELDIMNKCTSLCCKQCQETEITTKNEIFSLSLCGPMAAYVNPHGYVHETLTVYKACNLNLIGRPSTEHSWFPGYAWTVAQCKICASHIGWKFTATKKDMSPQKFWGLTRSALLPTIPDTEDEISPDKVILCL
compound,measurement,setting,value
CC(C)(C)OC(=O)NC(Cc1ccccc1)C(=O)NC1CCC(=O)NC1=O (centres unmarked) [Boc-FcQ],"Papp (B-A) (10^-6, cm/s)",FIG. 22C,"18.00 10^-6, cm/s"
same,Recovery (%)BL-AP,FIG. 22C,91.46%
same,additional substrates degraded (global proteomics),IKZF1 [1],no additional substrates were degraded
same,degradation of IKZF1 (global proteomics),IKZF1 [1],not susceptible to degradation
same,IC50,MM.1S cells,> 100000 nM
Cc1sc2c(c1C)C(c1ccc(Cl)cc1)=N[C@@H](CC(=O)NCCCCCCCCC(=O)N[C@@H](C)C(=O)N[C@H]1CCC(=O)NC1=O)c1nnc(C)n1-2 [JQ1-AcQ],Kd,[2]; [8],76 nM
Cc1sc2c(c1C)C(c1ccc(Cl)cc1)=N[C@@H](CC(=O)NCCCCCCCCC(=O)N[C@@H](CC(=O)O)C(=O)N[C@H]1CCC(=O)NC1=O)c1nnc(C)n1-2 [JQ1-DcQ],co-immunoprecipitation of BRD4 with FLAG-CRBN in lysates,BRD4 with FLAG-CRBN [3],equivalent co-immunoprecipitation of BRD4 with FLAG-CRBN
Cc1sc2c(c1C)C(c1ccc(Cl)cc1)=N[C@@H](CC(=O)NCCCCCCCCC(=O)N[C@@H](CCC(=O)O)C(=O)N[C@H]1CCC(=O)NC1=O)c1nnc(C)n1-2 [JQ1-EcQ],co-immunoprecipitation of BRD4 with FLAG-CRBN in lysates,BRD4 with FLAG-CRBN [3],equivalent co-immunoprecipitation of BRD4 with FLAG-CRBN
Cc1sc2c(c1C)C(c1ccc(Cl)cc1)=N[C@@H](CC(=O)NCCCCCCCCC(=O)N[C@@H](Cc1ccccc1)C(=O)N[C@H]1CC(=O)NC1=O)c1nnc(C)n1-2 [JQ1-FcN],co-immunoprecipitation of BRD4 by FLAG-CRBN in cells,BRD4 with FLAG-CRBN [4],readily co-immunoprecipitated
same,ternary complex formation (AlphaScreen signal / relative area under the curve normalized to dBET6),[5],stronger ternary complex than dBET6
Cc1sc2c(c1C)C(c1ccc(Cl)cc1)=N[C@@H](CC(=O)NCCCCCCCCC(=O)N[C@@H](Cc1ccccc1)C(=O)N[C@H]1CCC(=O)NC1=O)c1nnc(C)n1-2 [JQ1-FcQ],co-immunoprecipitation of BRD4 by FLAG-CRBN in cells,BRD4 with FLAG-CRBN [4],readily co-immunoprecipitated
same,ternary complex formation (AlphaScreen signal / relative area under the curve normalized to dBET6),[5],stronger ternary complex than dBET6
Cc1sc2c(c1C)C(c1ccc(Cl)cc1)=N[C@@H](CC(=O)NCCCCCCCCC(=O)N1CCC[C@H]1C(=O)N[C@H]1CCC(=O)NC1=O)c1nnc(C)n1-2 [JQ1-PcQ],Kd,[2]; [8],335 nM
same,Kd,[6]; [9],381 nM
Cc1sc2c(c1C)C(c1ccc(Cl)cc1)=N[C@@H](CC(=O)NCCCCCCCCC(=O)N[C@@H](Cc1ccc(O)cc1)C(=O)N[C@H]1CCC(=O)NC1=O)c1nnc(C)n1-2 [JQ1-YcQ],Kd,[2]; [8],277 nM
same,Kd,[6]; [9],5 nM
Cc1sc2c(c1C)C(c1ccc(Cl)cc1)=N[C@@H](CC(=O)NCCCCCCCCC(=O)N[C@H]1CC(=O)NC1=O)c1nnc(C)n1-2 [JQ1-cN],Kd,[2],390 nM
same,Kd,[6],538 nM
Cc1sc2c(c1C)C(c1ccc(Cl)cc1)=N[C@@H](CC(=O)NCCCCCCCCC(=O)N[C@H]1CCC(=O)NC1=O)c1nnc(C)n1-2 [JQ1-cQ],ternary complex formation (AlphaScreen signal / relative area under the curve normalized to dBET6),[5],ternary complex formation equivalent to the active JQ1-GcQ
same,Kd,[2],267 nM
same,Kd,[6],245 nM
same,degradation of BRD4 (functional degrader or not),BRD4,inactive
"Nc1cccc2c1CN(C1CCC(=O)NC1=O)C2=O (centres unmarked) [lenalidomide, Lenalidomide, reference compound]",IC50,MM.1S cells,31600 nM
"Nc1cccc2c1CN(C1CCC(=O)NC1=O)C2=O (centres unmarked) [lenalidomide, Lenalidomide]","Papp (A-B) (10^-6, cm/s)",FIG. 22C,"1.22 10^-6, cm/s"
same,"Papp (B-A) (10^-6, cm/s)",FIG. 22C,"4.41 10^-6, cm/s"
"Nc1cccc2c1C(=O)N(C1CCC(=O)NC1=O)C2=O (centres unmarked) [pomalidomide, Pomalidomide, reference compound]",degradation of IKZF1 (global proteomics),IKZF1 [1],selective degradation of the substrate IKZF1
same,degradation of IKZF1 (Western blot),IKZF1 [7],degraded
"GFP-FN: ""GFPs tagged with uncyclized glutamine and asparagine, GFP-FQ and GFP-FN"" (TGGSLPETFN; not fully specified (N-terminus))",in vitro ubiquitylation of tagged GFP by CRL4^CRBN complex,CRL4^CRBN complex,no modification
"GFP-FQ: ""GFPs tagged with uncyclized glutamine and asparagine, GFP-FQ and GFP-FN"" (TGGSLPETFQ; not fully specified (N-terminus))",in vitro ubiquitylation of tagged GFP by CRL4^CRBN complex,CRL4^CRBN complex,no modification
